“Also recorded” adds a separate entry of the source. Ends that are not written are not given here.
How the values were obtained:
[1] = system: peptide-pulsed A24LCL cells; test: IFN-gamma ELISA on expanded CTL lines, HLA-A24 peptides; format: cell-based, human; conditions: expanded cells of positive wells, FIG. 3E, 3G
Protocol: (§1) CTLs were expanded in culture using a similar method as reported by Riddell, et al. (Walter et al., N Engl J Med 333(16): 1038-44, 1995; Riddell et al., Nat Med 2(2): 216-23, 1996 February). A total of 5×10^4 CTLs were resuspended in 25 ml of AIM-V/5% AS with 2 kinds of human B-lymphoblastoid cell lines, inactivated with MMC, in the presence of 40 ng/ml of anti-CD3 monoclonal antibody (Pharmingen). One day after initiating the cultures, 120 IU/ml of IL-2 were added to the cultures. The cultures were fed with fresh AIM-V/5% AS containing 30 IU/ml of IL-2 on days 5, 8 and 11.
(§2) To examine the specific CTL activity, IFN-gamma ELISPOT assay and IFN-gamma ELISA were performed. Briefly, peptide-pulsed A24-LCL, T2 cell (1×10^4/well) or the cells endogenously expressing Foxp3 and HLA molecule was prepared as a stimulator cells. Cultured CTL lines in 48 wells were used as a responder cells. IFN-gamma ELISPOT assay and IFN-gamma ELISA were performed under manufacture procedure.
(§3) These cells in the positive wells were expanded and performed IFN-gamma ELISA assay.

[2] = system: peptide-pulsed A24LCL cells or T2 cells; test: In vitro CTL induction by peptide-loaded dendritic cells (summary statements); format: cell-based, human; conditions: for specific CTL activity: against peptide pulsed target cells; for establishment of CTLs: in vitro stimulation of T-cells by DCs loaded with peptide
Description: Confirmation of CTL inducibility can be accomplished by inducing antigen-presenting cells carrying human MHC antigens (for example, B-lymphocytes, macrophages, and dendritic cells), or more specifically dendritic cells derived from human peripheral blood mononuclear leukocytes, and after stimulation with the peptides, mixing with CD8-positive cells, and then measuring the IFN-gamma produced and released by CTL against the target cells. As the reaction system, transgenic animals that have been produced to express a human HLA antigen (for example, those described in BenMohamed L, Krishnan R, Longmate J, Auge C, Low L, Primus J, Diamond D J, Hum Immunol 61(8): 764-79, 2000 August, Related Articles, Books, Linkout Induction of CTL response by a minimal epitope vaccine in HLA A*0201/DR1 transgenic mice: dependence on HLA class II restricted T(H) response) can be used. For example, the target cells can be radiolabeled with ^51Cr and such, and cytotoxic activity can be calculated from radioactivity released from the target cells. Alternatively, it can be examined by measuring IFN-gamma produced and released by CTL in the presence of antigen-presenting cells that carry immobilized peptides, and visualizing the inhibition zone on the media using anti-IFN-gamma monoclonal antibodies.
(§4) Monocyte-derived dendritic cells (DCs) were used as antigen-presenting cells (APCs) to induce CTL responses against peptides presented on HLA. DCs were generated in vitro as described elsewhere (Horiguchi S. et al. Cancer Res. 59:2950-6). Specifically, peripheral blood mononuclear cells (PBMCs) isolated from normal volunteer (HLA-A*2402 and/or HLA-A*0201) with Ficoll-Plaque (Pharmacia) solution were separated by adherence to plastic tissue culture dish (Becton Dickinson) so as to enrich them for the monocyte fraction. The monocyte-enriched population was cultured in the presence of 1000 U/ml of GM-CSF (R&D System) and 1000 U/ml of IL-4 (R&D System) in AIM-V medium (Invitrogen) containing 2% heat-inactivated autologous serum (AS). After 7 days in the culture, the cytokine-generated DCs were pulsed with 20 mcg/ml of the synthesized peptides in the presence of 3 mcg/ml of beta2-microglobulin for 4 hrs at 20 degrees C. in AIM-V medium. These peptide-pulsed DCs were then inactivated with mitomycin C (MMC) (30 mcg/ml for 30 mins) and mixed at a 1:20 ratio with autologous CD8+ T cells, obtained by positive selection with CD8 Positive Isolation Kit (Dynal). These cultures were set up in 48-well plates (Corning); each well contained 1.5×10^4 peptide-pulsed DCs, 3×10^5 CD8+ T cells and 10 ng/ml of IL-7 (R&D System) in 0.5 ml of AIM-V/2% AS. Three days later, these cultures were supplemented with IL-2 (CHIRON) to a final concentration of 20 IU/ml. On day 7 and 14, the T cells were further restimulated with the peptide-pulsed autologous DCs. The DCs were prepared each time through the same procedure described above. CTL activity was tested against peptide-pulsed A24LCL cells or T2 cells after the 3rd round of peptide stimulation on day 21.
as §2

[3] = system: peptide-pulsed A24LCL cells; test: IFN-gamma ELISPOT on CTLs induced with HLA-A2402 restricted Foxp3 peptides; format: cell-based, human; conditions: FIG. 1A/1B
Description: as §4, §2
CTLs for the peptides derived from Foxp3 protein were generated according to the method described in the “Materials and Methods”, supra.

[4] = system: peptide-pulsed T2 cells; test: IFN-gamma ELISA on expanded CTL lines, HLA-A02 peptides; format: cell-based, human; conditions: expanded cells of positive wells, FIG. 3A-D, 3F
Protocol: as §1, §2, §3

[5] = system: peptide-pulsed T2 cells; test: IFN-gamma ELISPOT on CTLs induced with HLA-A0201 restricted Foxp3 peptides; format: cell-based, human; conditions: FIG. 2A/2B/2C
Description: as §4, §2
Resulting CTLs showing detectable specific CTL activity were shown in FIG. 2A, FIG. 2B and FIG. 2C when performed by IFN-gamma ELISPOT assay.

[6] = system: BALB/c mice; test: Immunogenicity of epitope peptides in BALB/c mice (IFN-gamma ELISPOT on splenocytes); format: in vivo
Protocol: IFA-conjugated peptide or IFA only were injected s.c. into BALB/c mice on day 0 and 7. On day 14, splenocytes of vaccinated mice were harvested and used as responder cells. 1×10^4 RLmale1 cells pulsed corresponding peptide (solid square), or no peptide (open square) were used as stimulator cells for IFN-gamma ELISPOT assay. Vaccination using Foxp3-252_h (A) and Foxp3-252_m (B) were performed into five mice (M1-M5) and IFA without any peptide injection were performed into three mice (N1-N3) as control in each assay.
For priming the peptide-specific CTLs, immunization was given using 100 mcl vaccine mixture, which contains 50 mcl HLA-A24 restricted peptide and 50 mcl IFA per mouse. The vaccine was injected s.c. into the right flank of mice for the first immunization on day 0 and in the left flank for the second on the day 7. On day 14, splenocytes from vaccinated mice were used as the responder cells, and RLmale1 cells pulsed with or without peptides were used as the stimulator cells for IFN-gamma ELISPOT assay.
To evaluate the immunogenicity of Foxp3-9-252 peptide for BALB/c mice, immunization with human Foxp3-9-252 peptide (Foxp3-252_h; KLSAMQAHL)(SEQ ID NO: 17) and mouse Foxp3-9-252 peptide (Foxp3-252_m; KLGAMQAHL) (SEQ ID NO: 89) were performed, respectively. After second injection of peptide, peptide specific CTL activity was determined by IFN-gamma ELISPOT assay (FIG. 5).

[7] = system: 4T1 breast cancer cells; test: In vivo antitumor effects of vaccination, 4T1 tumor; design: species or system BALB/c mice; conditions: 4T1 s.c. day 0, vaccination day 3 and 10, compared with control mice, FIG. 6
Protocol: 1×10^5 4T1 breast cancer cell lines were injected into BALB/c mice on day 0. IFA-conjugated with Foxp3-252_h (-open circle-), Foxp3-252_m (-solid square-), no peptide (-solid triangle-) was injected on day 3 and 10. As control of normal tumor growth, non-vaccinated mice (-x-) were also prepared in this assay.
4T1 cells (1×10^5 per mouse) were injected s.c. into the right flank of BALB/c mice on day 0. Vaccination was done on days 3 and 10 using hFoxp3-252 (KLSAMQAHL: SEQ ID NO: 17) or mFoxp3-252 (KLGAMQAHL: SEQ ID NO: […]) IFA-conjugated peptides.
To examine the antitumor effects with peptide vaccination targeted Foxp3, in vivo therapeutic setting was attempted by using 4T1 tumor cells and BALB/c mice. The 4T1 breast cancer cells were injected s.c. into BALB/c mice on day 0, and then vaccination was done on these mice 3 and 10 days after the tumor challenge.

[8] = system: 293T that transfected both Foxp3 and HLA-A02; test: Specific CTL activity against target cells expressing Foxp3 and HLA-A02; format: cell-based, human
Protocol: as §2
The established CTL clone raised against these peptides were examined for their ability to recognize the target cells endogenously expressing Foxp3 and HLA-A*24 or 02. Specific CTL activity against 293T transfected both full length of Foxp3 gene and HLA-A*24 or 02 molecule, which is specific model for the target cells endogenously express Foxp3 and HLA-A*24 or 02, was tested using the CTL lines raised by Foxp3-A02-9-390 (SEQ ID NO: 15) and Foxp3-A02-9-252 (SEQ ID NO: 17) as effector cells. […] Furthermore, these peptides were epitope peptides, which can utilize vaccine targeting Foxp3 expressed T-regs.

Row | Substance | IFN-gamma production of CTL lines stimulated with peptide, compared with the control [1] | specific CTL activity [2] | establishment of CTLs [2] | IFN-gamma production of CTLs stimulated with peptide, compared with the control [3] | IFN-gamma production of CTL lines stimulated with peptide, compared with the control [4] | IFN-gamma production of CTLs stimulated with peptide, compared with the control [5] | mice with peptide specific CTL response ([6]; IFA-conjugated peptide s.c. day 0 and 7, splenocytes day 14, RLmale1 stimulator cells, FIG. 5) | induction of epitope specific CTLs in vivo ([6]; vaccination of BALB/c mice, discussion) | tumor growth / antitumor effect ([7]; listed as Foxp3-252_m) | tumor growth / antitumor effect ([7]; listed as mFoxp3-252) | specific CTL activity of CTL lines raised by peptide ([8]; against 293T transfected with both Foxp3 and HLA-A02, FIG. 4A/4B) | specific CTL activity against controls ([8]; controls of FIG. 4A/4B)
1 | GPLPhLQALL (GPLPHLQALL; not fully specified (residue 5); printed as GPLPhLQALL) [SEQ ID NO 67] | potent IFN-gamma production | significant and specific CTL activity | CTLs were successfully established | potent IFN-gamma production | – | – | – | – | – | – | – | –
2 | SLNPmPPSQL (chain 1 SLNPMPPSQL; chain 2 SLNPMPPSQL; not fully specified (some residues)) [SEQ ID NO 74] | potent IFN-gamma production | significant and specific CTL activity | CTLs were successfully established | potent IFN-gamma production | – | – | – | – | – | – | – | –
3 | ALLQDRPHFM (peptide vaccine) [SEQ ID NO 27] | – | significant and specific CTL activity | CTLs were successfully established | – | potent IFN-gamma production | potent IFN-gamma production | – | – | – | – | – | –
4 | KLGAMQAHL (peptide vaccine) [SEQ ID NO 88, mouse Foxp3-9-252 peptide] | – | – | – | – | – | – | one of five | could induce epitope specific CTLs in vivo | tumor growth apparently reduced; also recorded: Significant difference of tumor growth suppression | obviously anti-tumor effects | – | –
5 | SLHKCFVRV (peptide vaccine) [SEQ ID NO 15] | – | significant and specific CTL activity | CTLs were successfully established | – | potent IFN-gamma production | potent IFN-gamma production | – | – | – | – | high specific CTL activity | did not show significant specific CTL activity

Source: US8563516B2, “Foxp3 peptide vaccine” (OncoTherapy Science, Inc., priority 2007, dated 2013)
